Source: patent US11754498B2, “Single AIEgen for multiple tasks: imaging of dual organelles and evaluation of cell viability” (THE HONG KONG UNIVERSITY OF SCIENCE AND TECHNOLOGY, priority 2019, dated 2023)

Assays:
[1] = system: HeLa cells; assay: standard MTT assay, cytotoxicity in HeLa cells; assay type: cell-based; conditions: incubation at different concentrations for 24 h
Excerpt: Before bioimaging, the cytotoxicity of TVQE was first studied by standard MTT assay in HeLa cells.

[2] = system: mitochondria in live HeLa cells; assay: co-stain with mitochondrial probe MitoTracker Deep Red FM (MTDR), CLSM; assay type: cell-based; conditions: 2 μM TVQE, 0.2 μM MTDR
Experimental: (§1) To further confirm the staining location of TVQE, co-stain experiments with commercialized mitochondrial probe MitoTracker Deep Red FM (MTDR) and lipid-droplet probe Nile Red were performed.

[3] = system: lipid droplets in live HeLa cells; assay: co-stain with lipid-droplet probe Nile Red, CLSM; assay type: cell-based; conditions: 2 μM TVQE, 1 μM Nile Red
Experimental: as §1

[4] = absorption and fluorescence (FL) spectra, photophysical properties; assay type: physicochemical
Experimental: The absorption and fluorescence (FL) spectra of TVQE and TVQ in different solvents were tested and the results are shown in FIGS. 11A-11D and FIGS. 12A-12D.
Furthermore, fluorescence spectra of TVQE in EtOH and EtOH/hexane mixtures with different hexane fraction were shown in FIG. 11A. In pure EtOH, TVQE was weakly emissive with a quantum yield of 0.7%. With the increase of hexane volume content, the FL intensity increased gradually, accompanied with blue-shift in FL maximum from 673 nm to 637 nm, shown in FIG. 11B. When fH=90%, FL intensity reached the maximum with a quantum yield of 3% due to the formation of aggregates, indicating the AIE feature of TVQE. The FL intensity decreased when fH increased to 95%, probably due to the change of the morphology and size of the aggregates. […]

[5] = system: esterase; assay: FL spectra of TVQE treated with active esterase in PBS; assay type: biochemical; conditions: room temperature
Experimental: To get insight into the mechanism of TVQE to esterase, the FL spectra of TVQE treated with active esterase in PBS at room temperature were measured and shown in FIG. 11D. At the beginning, only a weak emission peak at around 700 nm was detected. As treatment time progressed, the fluorescence at about 520 nm increased gradually, which was consistent with the FL spectra of TVQ in PBS, depicted in FIG. 12B.

[6] = system: live HeLa cells; assay: CLSM imaging of live HeLa cells, in situ emission spectra and time tracking; assay type: cell-based
Experimental: Bioimaging experiments were then carried out in live HeLa cells. Based on the spectra imaging function of confocal laser scanning microscope (CLSM), the real color images of live HeLa cells stained with TVQE and in situ emission spectra were obtained (FIGS. 14A-14C and FIG. 15A). […] As designed, TVQE can be hydrolyzed by esterase to provide TVQ. It was speculated that the red emission came from TVQE while the blue emission was from the hydrolysate TVQ.
The in situ imaging performance of TVQE in live HeLa cells at different time points was then tracked and investigated (FIGS. 16A-16B and FIGS. 17A-17B). It could be observed that TVQE first stained mitochondria and emitted red fluorescence. Then, after about 5 min, lipid droplets in the blue channel were clearly illuminated. It should be noted that the fluorescence intensity in the red channel increased at the beginning, reached maximum at about 12 min, then decreased gradually. The fluorescence in the blue channel increased with increased time. […] In addition, the lipophilic hydrolysate tended to accumulate in lipid droplets gradually.

[7] = system: HeLa cells; assay: flow cytometry of live, early apoptotic, late apoptotic and dead cells stained by TVQE; assay type: cell-based
Experimental: As esterase activity can reflect cell viability, an investigation was conducted to determine whether TVQE could be used to evaluate cell viability. […] In apoptotic cells, the esterase activity decreased, so that the emission in the blue channel was much weaker than that in live cells. When HeLa cells were treated with 10 mM H2O2 for 1 h and 4.5 h, early and late apoptotic HeLa cells could be clearly and differentially visualized (FIGS. 18 and 19). […] However, nearly no blue-emissive fluorescence signal but strong red emission was detected in dead cells because of the inactivated esterase activity. […] The fluorescence changes in both blue and red channels of cells in different states were obtained from flow cytometry (Becton Dickinson FACSAria Mu). Referring to FIG. 20C, numerical values in the cyan region, e.g., mean fluorescent intensity values around 3.2×10^4 and 650 in the blue and red channels, respectively correspond to cells that were alive, numerical values in the red region, e.g., mean fluorescence intensity values around 1.4×10^4 and 780 in the blue and red channels, respectively, correspond to cells in early apoptotic stages, numerical values in the orange region, e.g., mean fluorescence intensity values around 1700 and 4200 in the blue and red channels, respectively, correspond to cells in the late apoptotic stages, and numerical values in the green region, e.g., mean fluorescence intensity values around 780 and 1.5×10^4 in the blue and red channels, respectively, correspond to cells that were dead.
Flow cytometry is a widely used tool for statistical analysis. It has different laser sources and is suitable for simultaneous detection of multichannel fluorescence signals. A flow cytometry assay was performed to monitor the fluorescence changes in both red and blue channels of cells at different physiological stages. […] Compared with live cells, the blue emission in early apoptotic cells was a little weaker. […] The red emission in dead cells was stronger in comparison with late apoptotic cells.

[8] = live HeLa cells stained with 2 μM TVQE, in situ emission spectra
[9] = cells in early apoptotic stages (10 mM H2O2)
[10] = cells in the late apoptotic stages (10 mM H2O2)

In the case of CC(=O)Oc1ccc(C[n+]2ccc(/C=C/c3ccc(N(c4ccccc4)c4ccccc4)cc3)c3ccccc32)cc1 [TVQE], the “viability of HeLa cells” value [1] is reported as “higher than 85%”, the “co-localization coefficient with MTDR” value [2] is reported as 0.9 and the “co-localization coefficient with Nile Red” value [3] is reported as 0.87. The Stokes shift ([4]; EtOH) was 123 nm, the “Φ (fluorescence quantum yield)” value ([4]; EtOH) was 0.7% and the “ε (molar absorptivity at maximum absorption wavelength)” value ([4]; EtOH) was 18900 M⁻¹ cm⁻¹. For the same compound, the “λabs (absorption maximum)” value ([4]; EtOH) was 548 nm, the “λem (emission maximum)” value ([4]; EtOH) was 671 nm and the Stokes shift ([4]; Hexane/EtOH = 9/1) was 131 nm. The “ε (molar absorptivity at maximum absorption wavelength)” value ([4]; Hexane/EtOH = 9/1) was 18800 M⁻¹ cm⁻¹, the “λabs (absorption maximum)” value ([4]; Hexane/EtOH = 9/1) was 527 nm and the “λem (emission maximum)” value ([4]; Hexane/EtOH = 9/1) was 656 nm. The “Φ (fluorescence quantum yield)” value ([4]; Hexane/EtOH = 9/1 (fH=90%)) was 3%, the Stokes shift ([4]; THF) was 156 nm and the “Φ (fluorescence quantum yield)” value ([4]; THF) was 1.3%. The “ε (molar absorptivity at maximum absorption wavelength)” value ([4]; THF) was 16600 M⁻¹ cm⁻¹, the “λabs (absorption maximum)” value ([4]; THF) was 522 nm and the “λem (emission maximum)” value ([4]; THF) was 678 nm. The Stokes shift ([4]; Tol) was 125 nm, the “Φ (fluorescence quantum yield)” value ([4]; Tol) was 6.6% and the “ε (molar absorptivity at maximum absorption wavelength)” value ([4]; Tol) was 17300 M⁻¹ cm⁻¹. The “λabs (absorption maximum)” value ([4]; Tol) was 534 nm, the “λem (emission maximum)” value ([4]; Tol) was 659 nm and the fluorescence emission ([4]; solid state) was 739 nm. The quantum yield ([4]; solid state) was 2.3%, the hydrolysis by esterase ([5]; active esterase (1 U/mL) in PBS) was “could be hydrolyzed to TVQ with blue emission by esterase” and the “fluorescence increasing gradually as treatment time progressed” value ([5]; esterase in PBS) was “about 520 nm”. For the same compound, the “emission peak at the beginning” value ([5]; esterase in PBS, beginning of treatment) was “around 700 nm”, the “blue emission inside cells” value [6, 8] was 480 nm and the “red emission inside cells” value [6, 8] was 650 nm. The “time after which lipid droplets in the blue channel were clearly illuminated” value ([6]; live HeLa cells, 2 μM TVQE) was “about 5 min”, the “time at which fluorescence intensity in the red channel reached maximum” value ([6]; live HeLa cells, 2 μM TVQE) was “about 12 min” and the “mean fluorescence intensity, blue channel” value [7, 9] was “around 1.4×10^4”. The “mean fluorescence intensity, red channel” value [7, 9] was “around 780”, the “mean fluorescence intensity, blue channel” value [7, 10] was “around 1700” and the “mean fluorescence intensity, red channel” value [7, 10] was ~4200. For the same compound, the “mean fluorescent intensity, blue channel” value ([7]; cells that were alive) was “around 3.2×10^4”, the “mean fluorescent intensity, red channel” value ([7]; cells that were alive) was ~650 and the “mean fluorescence intensity, blue channel” value ([7]; cells that were dead) was “around 780”. The “mean fluorescence intensity, red channel” value ([7]; cells that were dead) was ~1.5×10^4.
